Test results: paper PMC3903478, “Expression and Properties of the Highly Alkalophilic Phenylalanine Ammonia-Lyase of Thermophilic Rubrobacter xylanophilus” (PLoS ONE, 2014)

Target: T1, RxPAL (phenylalanine ammonia-lyase of Rubrobacter xylanophilus) (Rubrobacter xylanophilus, UniProt Q1AV79)
T1 construct: gene Rxyl_1739; full length (540 AA), N-terminal His6-tag kept, codon-optimised synthetic gene in pBAD-HisB, expressed in E. coli TOP10, Ni-NTA purified; MIO prosthetic group formed from ASG
Experiment: UV spectrophotometry at […] nm, cinnamic acid formation
Assay type: biochemical
Details: 20 mM L-phenylalanine, 0.1 M buffers pH 4.0-12, ionic strength 250 mM

T1 sequence (Q1AV79 entry or part of it): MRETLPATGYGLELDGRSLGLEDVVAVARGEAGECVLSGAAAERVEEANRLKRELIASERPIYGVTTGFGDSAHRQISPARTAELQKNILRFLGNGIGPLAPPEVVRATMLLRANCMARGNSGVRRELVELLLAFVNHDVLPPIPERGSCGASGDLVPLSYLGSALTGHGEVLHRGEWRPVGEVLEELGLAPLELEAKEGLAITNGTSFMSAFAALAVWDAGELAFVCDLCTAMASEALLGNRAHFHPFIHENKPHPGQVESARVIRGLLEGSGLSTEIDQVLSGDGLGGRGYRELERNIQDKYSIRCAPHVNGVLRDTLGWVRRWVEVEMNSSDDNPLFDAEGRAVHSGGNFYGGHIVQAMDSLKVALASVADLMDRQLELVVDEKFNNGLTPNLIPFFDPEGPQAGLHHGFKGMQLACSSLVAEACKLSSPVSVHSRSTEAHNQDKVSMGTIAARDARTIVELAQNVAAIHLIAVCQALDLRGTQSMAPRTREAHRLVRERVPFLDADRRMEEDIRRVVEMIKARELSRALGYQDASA

N[C@@H](Cc1ccccc1)C(=O)O [L-phenylalanine]
UV spectrophotometry at 290 nm, cinnamic acid formation: Progress of ammonia elimination from L-phenylalanine was monitored by detection of (E)-cinnamic acid production
